# Assays:
# Test in all cases: relative viability (nuclei count vs DMSO), 5 days (fraction); higher = more cells survive
# TGX 221 + Bortezomib = compound: CC1=CN2C(=O)C=C(N=C2C(=C1)C(C)NC3=CC=CC=C3)N4CCOCC4 [TGX 221] + CC(C)C[C@H](NC(=O)[C@H](Cc1ccccc1)NC(=O)c1cnccn1)B(O)O [Bortezomib] (partner 0.002 µM)
# How it was run: (§1)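 Five library-drug doses in √10 steps were combined with a fixed anchor-drug dose, or a single drug was given alone, by pin tool to lung cancer cell lines in 1536-well plates the day after seeding. Nuclei were stained and counted after 5 days. Relative viability is the nuclei count in treated wells over that in vehicle wells, taken as the median of duplicate plates.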
# [1] = compound: C1=CC=C(C(=C1)C2=CC=C(C=C2)C3=CSC4=C3C(=C(C(=O)N4)C#N)O)O + CS(=O)(=O)CCNCc1ccc(-c2ccc3ncnc(Nc4ccc(OCc5cccc(F)c5)c(Cl)c4)c3c2)o1 [Lapatinib] (partner 2 µM)
# How it was run: as §1
# Ricolinostat + OSI-027 = compound: O=C(CCCCCCNC(=O)c1cnc(N(c2ccccc2)c2ccccc2)nc1)NO [Ricolinostat] + COc1cccc2cc(-c3nc([C@H]4CC[C@H](C(=O)O)CC4)n4ncnc(N)c34)[nH]c12 [OSI-027] (partner 0.5 µM)
# How it was run: as §1
# [2] = compound: C1=CC=C(C(=C1)C2=CC=C(C=C2)C3=CSC4=C3C(=C(C(=O)N4)C#N)O)O + C[C@]1(O)C[C@@H](c2nc(-c3ccc4ccc(-c5ccccc5)nc4c3)c3c(N)nccn32)C1 [Linsitinib] (partner 1 µM)
# How it was run: as §1
# [3] = compound: C1=CC=C(C(=C1)C2=CC=C(C=C2)C3=CSC4=C3C(=C(C(=O)N4)C#N)O)O + O=C(c1cc(Cc2n[nH]c(=O)c3ccccc23)ccc1F)N1CCN(C(=O)C2CC2)CC1 [Olaparib] (partner 8 µM)
# How it was run: as §1
cell line,measurement,setting,value
NCI-H1792,relative viability,TGX 221 + Bortezomib; first compound 0.08 µM,0.89
same,relative viability,TGX 221 + Bortezomib; first compound 0.253 µM,0.922
same,relative viability,TGX 221 + Bortezomib; first compound 0.8 µM,0.944
same,relative viability,TGX 221 + Bortezomib; first compound 2.53 µM,0.904
same,relative viability,TGX 221 + Bortezomib; first compound 8 µM,0.838
same,relative viability,[1]; first compound 0.253 µM,0.543
same,relative viability,[1]; first compound 0.8 µM,0.854
same,relative viability,[1]; first compound 2.53 µM,0.92
same,relative viability,[1]; first compound 8 µM,0.658
same,relative viability,Ricolinostat + OSI-027; first compound 0.253 µM,0.709
same,relative viability,Ricolinostat + OSI-027; first compound 0.8 µM,0.693
same,relative viability,Ricolinostat + OSI-027; first compound 2.53 µM,0.759
same,relative viability,[2]; first compound 0.253 µM,0.436
same,relative viability,[2]; first compound 0.8 µM,0.542
same,relative viability,[2]; first compound 2.53 µM,0.474
same,relative viability,[2]; first compound 8 µM,0.317
same,relative viability,[3]; first compound 0.253 µM,0.324
same,relative viability,[3]; first compound 0.8 µM,0.365
same,relative viability,[3]; first compound 2.53 µM,0.317
same,relative viability,[3]; first compound 8 µM,0.389
